For the assay, the system named is α-synuclein. The assay can be described thus: α-synuclein ELISA in α-synuclein-transfected B35 cells. Type of assay: cell-based, rat. The protocol: Rat neuroblastoma B35 cells were grown in Dulbecco's Modified Eagle's Medium (DMEM) with 10% Fetal Bovine Serum (FBS) and 1% penicillin/streptomycin and incubated at 37° C. with 5% CO2. For the experiments, cells were transferred to 12-well plates (Cat. #150628, ThermoFisher, Waltham, MA) and grown to at least 70% confluence. Transient transfection was performed with 3 μg P301 L tau (Cat. #30145, Addgene) cDNA or 3 μg human α-synuclein cDNA using Fugene HD transfection reagent (Cat. #E2311, Promega, Madison WI) for 24 hours. Cells were treated with 1 mM, 100 μM, 10 μM, 1 μM, 0.1 μM, 0.01 μM, and 0.001 μM dissolved in DMSO or an equivalent 5 ul of DMSO for 5 hours. Cell culture media was collected and cells were harvested using sodium-tris, EDTA, NP-40 (STEN) buffer and centrifuged at 10,000×g for 20 minutes at 4′C and supernatant was collected. Cell viability was determined via lactate dehydrogenase assay (Cat. #88954, Thermofisher) and MTT assay (Cat. #V13154, Thermofisher). Protein was extracted by removing culture medium and adding 0.2 ml 1× STEN buffer (50 mM. Tris (pH 7.6), 150 mM NaCl, 2 mM EDTA, 0.2% NP-40, 0.2% BSA, 20 mM. PMSF and protease cocktail inhibitor) to cell layer and incubated on ice for 10 minutes. The bottom of the well was scraped and allowed to incubate on ice for an additional 10 minutes. Cell lysates were collected, stored at −80° C., and used for additional analyses.
To perform transient transfection of α-synuclein into the rat neuroblastoma B35 cells FuGene® HD Transfection Reagent (Promega Corporation, Madison, WI) was used. Cells were grown in 12-well dishes. […]
Human α-synuclein and p-tau ELISA were performed using 50 μl (1 μg/4 μl) of cell lysates detected with 50 μl primary antibody (3 h) and 100 μl anti-rabbit secondary antibody (30 min) at RT. α-Synuclein levels were measured using human specific ELISA (Invitrogen Inc., Carlsbad, CA) according to manufacturer's protocols. Tau was measured using specific tau at serine 396 according to manufacturer's protocol. […]
In general terms: ELISA stands for enzyme-linked immunosorbent assay.

Molecules are shown by their SMILES. Entries after “also recorded” stand apart in the source; their conditions may differ.

Turning to `Cc1cccc(-c2cc3nccc(Nc4cccc(O)c4)c3s2)c1` [BK40196], the level of alpha-synuclein entry (transfected B35 cells, 1 mM and 100 uM) was “significantly reduced”.

In the case of `Cc1cccc(-c2cc3nccc(N4CCOCC4)c3s2)c1` [BK40197, 4-(2-(m-Tolyl)thieno[3,2-b]pyridin-7-yl)morpholine], the α-synuclein level result (α-synuclein-transfected B35 cells, 24 hour transfection) was “does not reduce alpha-synuclein; also recorded: does not significantly reduce”.

Source of the values: patent publication US12246009B2, “Compositions and methods for treating neurodegenerative, myodegenerative, and lysosomal storage disorders” (GEORGETOWN UNIVERSITY, priority 2018, dated 2025).
